Assay results reported in patent publication US11229628B2, “TRPA1 and TRPV4 inhibitors and methods of using the same for organ-specific inflammation and itch” (Duke University, priority 2015, dated 2022).
Entries after “also recorded” stand apart in the source; their conditions may differ.

Key:
[1] = system: periostin secretion by keratinocytes; test: Periostin secretion by keratinocytes in response to histamine; format: cell-based
Excerpt: As detailed in the Examples, secretion of periostin (93 kDa protein) by keratinocytes in response to histamine exposure is dependent on TRPV4. […] Periostin has a role in chronic allergic skin inflammation and also pathologic-fibrotic remodeling of the skin. Histamine activates TRPV4 channels via specific activation of histamine H1R-receptors in keratinocytes. This TRPV4-dependent calcium influx regulates release of periostin from keratinocytes. In terms of fibrotic tissue remodeling of organs, TRPV4 channels expressed by fibroblasts may have a role in lung fibrosis evoked by bleomycin, which may relate to fibroblasts elsewhere, including skin fibroblasts and synovial fibroblasts. Inhibitors as detailed herein may potently block TRPV4 activation in keratinocytes and also skin fibroblasts. Based on the above signaling mechanisms, this will attenuate and prevent fibrotic responses in the skin, also chronic skin-remodeling tissue responses mediated by endogenous pathogenetic mediator molecules such as periostin. As for synovia of the joint, one response to joint trauma is development of synovial fibrosis and contracture. Synoviocytes, synovial fibroblasts and infiltrating inflammatory cells may have roles in this maladaptive response, as all of these cells are known to express TRPV4. […]

ET1 secretion by 1° MK = test: ET1 secretion by non-stimulated 1° MK (ELISA of supernatant); format: cell-based, mouse
Method: FIG. 8: Central role for KC TRPV4 in UVB-evoked Ca^++ signaling and nocifensive behavior—ET1-related supplementary findings. (A) Augmentation of GSK101-evoked Ca^++ signaling by ET1. Shown are averaged Ca^++ measurements (fura-2) in response to 5 nM GSK101. […] (B) ET1 secretion by non-stimulated 1° MK depends on TRPV4 and PLC. Shown are relative ET1 concentrations (determined by ELISA, pg/mL; vehicle-treated and WT control normalized to 100) in supernatant of non-stimulated 1° MK. Note the clear dependence on TRPV4, as indicated by a 50% reduction in Trpv4^−/− 1° MK. […] In addition, PLC-inhibitor robustly affects ET1 secretion in WT and Trpv4^−/− 1° MK. (C) ET1 expression by UVB-exposed 1° MK depends on TRPV4 and PLC—immunocytochemistry. Shown is specific ET1 immunolabeling in 1° MK, exposed to UVB using the UVB-LEDs, as for Ca^++ imaging. Use of the UVB-LED device precluded application of a ET1 ELISA, only irradiated cells could be examined. […] (D) ET1 expression by UVB-exposed 1° MK depends on TRPV4 and PLC—quantification of immunocytochemistry.
We tested whether UVB causes ET1 upregulation in a TRPV4-dependent manner. Given the exquisite wave-length dependence of ET1 expression in 1° MKs, we resorted to the UVB-LED device as for Ca++ imaging (FIG. 6A and FIG. 2A-D). […] Consistent with its effects on UVB-evoked Ca++ transients, PLC-inhibitor U73122 also dampened ET1 expression. […] This leads to TRPV4-dependent Ca++ signaling, which in turn amplifies ET1 signaling in a paracrine/autocrine fashion.

[2] = system: primary mouse epidermal keratinocytes (1° MK); test: UVB-evoked Ca++ signaling in primary mouse keratinocytes (fluo-4 imaging); format: cell-based
Method: Ca++ imaging of 1° MK was conducted following routine procedures. For UVB stimulation, a customized device was built. The system comprised a printed circuit board for electrical interconnects and mechanical support and an ultraviolet light-emitting diode (UV LED).
The operating wavelength was 295 nm (FIG. 2A), with a full-width half-max of 12 nm. The optical power was 500 mW. The focal point was aimed at the plane of the upper surface of the quartz coverslip, which was used to minimize UV absorption along the optical path towards the cells (FIG. 2A-C). The optical intensity at the focal point was estimated to be 150 mW/mm^2.
Ca++ imaging of mouse 1° MK in response to chemical activation of TRPV4 was conducted after loading with 2 μM fura2-AM, following a ratiometric Ca2+ imaging protocol with 340/380 nm […] for dual excitation. Ratios of emissions were acquired at 0.5 Hz. ΔR/R0 was determined as the fraction of the increase of a given ratio over baseline ratio, divided by baseline ratio. For stimulation of cells with UVB, where fura-2 was not suitable because of the proximity of stimulation with 340/380 nm and 295 nm, 2 μM fluo4-AM was used instead. Ca++ imaging was carried out at 488 nm excitation, acquisition of emissions at 0.5 Hz, expressed as ΔF/F0. In the custom-built UV optical system, UV LEDs were capped with a ball lens, a transparent optical window in the shape of a hemispherical lens (FIG. 2B). The LED output optical beam focused at 15-20 mm from the lens, with a spot diameter of approximately 1.5˜2.0 mm (FIG. 2C). […] The thermal equilibration stage was set for physiological temperature.
To further dissect the underlying mechanisms involved, we built a customized device for specific and narrow-band UVB stimulation of primary mouse epidermal keratinocytes (1° MK) cultured in vitro (FIG. 6A-B and FIG. 2A-D). This allowed use of the Ca++ sensitive dye, fluo-4, and assessment of 1° MK's Ca++ dynamics following UVB exposure (FIG. 6B). The elicited Ca++ signal was obliterated by a UV-refracting glass coverslip, underscoring the strict dependence of the calcium response on UVB (FIG. 6C and FIG. 2A).

SMILES: CN(CCc1ccc(Nc2nc(-c3cccnc3)cs2)cc1)Cc1ccccc1 [GSK205]
- secretion of periostin by histamine-stimulated keratinocytes [1]: completely eliminated
- ET1 secretion by non-stimulated 1° MK (ET1 secretion by 1° MK): significant down-regulation
- ET1-augmented UVB-evoked Ca++ signaling ([2]; UVB and ET1 co-exposure): greatly diminished
- UVB-evoked Ca++ signaling ([2]; fluo-4 ΔF/F0, GSK205 20 μM): very similar response to that of Trpv4−/− 1° MK; also recorded: strongly down-regulated; also recorded: significant attenuation
